Data on one molecule can be found in paper PMC3898987 (Bioorganic & Medicinal Chemistry, 2013).

In test [1] the target is T1, 5-HT3AB receptor, 5-HT3B subunit W90C (Homo sapiens, UniProt O95264+P46098, W83C).
T1 sequence (P46098 24-478): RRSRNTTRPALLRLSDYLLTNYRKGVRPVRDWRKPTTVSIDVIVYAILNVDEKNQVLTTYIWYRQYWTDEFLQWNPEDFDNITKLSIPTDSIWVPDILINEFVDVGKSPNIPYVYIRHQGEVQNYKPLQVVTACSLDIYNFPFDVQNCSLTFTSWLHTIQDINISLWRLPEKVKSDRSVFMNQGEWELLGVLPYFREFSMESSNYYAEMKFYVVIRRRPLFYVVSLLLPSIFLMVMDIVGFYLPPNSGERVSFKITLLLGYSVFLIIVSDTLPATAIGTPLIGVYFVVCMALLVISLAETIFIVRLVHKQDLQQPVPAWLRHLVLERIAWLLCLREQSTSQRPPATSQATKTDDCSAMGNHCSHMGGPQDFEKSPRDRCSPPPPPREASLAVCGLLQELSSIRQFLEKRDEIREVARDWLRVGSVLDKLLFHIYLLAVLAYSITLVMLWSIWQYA
T1 sequence (O95264 22-441 W83C): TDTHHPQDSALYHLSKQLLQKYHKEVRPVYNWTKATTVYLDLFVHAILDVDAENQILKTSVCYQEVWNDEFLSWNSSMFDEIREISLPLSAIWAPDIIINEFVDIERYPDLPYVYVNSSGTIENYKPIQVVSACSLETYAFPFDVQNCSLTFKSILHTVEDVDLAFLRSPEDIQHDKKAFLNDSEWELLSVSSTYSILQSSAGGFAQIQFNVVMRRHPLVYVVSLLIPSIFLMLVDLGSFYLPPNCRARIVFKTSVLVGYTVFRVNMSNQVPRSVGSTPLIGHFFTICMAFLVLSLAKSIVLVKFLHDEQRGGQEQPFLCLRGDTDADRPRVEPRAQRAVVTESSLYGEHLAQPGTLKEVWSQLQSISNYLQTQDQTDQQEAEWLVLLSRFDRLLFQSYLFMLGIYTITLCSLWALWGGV
The test can be described thus: cell-based.
Method: Human embryonic kidney (HEK) 293 cells were cultured on 90 mm tissue culture plates at 37 °C and 7% CO2 in a humidified atmosphere. They were grown in DMEM:F12 (Dulbecco’s Modified Eagle’s Medium/Nutrient Mix F12 (1:1)) with GlutaMAX I™ containing 10% fetal calf serum and passaged when confluent. […] For FlexStation assays, transfected cells were plated on 96-well plates and incubated 1–2 days before assay.
(§1) Fluorometric studies were undertaken using a FlexStation® (Molecular Devices, Sunnyvale, CA, USA) as previously described.[11]
(§2) Fluorescence was measured every 2 s for 200 s. […] Concentration–response and inhibition curves were obtained for each mutant, and the fluorescence values were normalized to the maximal response.

For a further test, the target named is T2, 5-HT3A receptor Y73A (Homo sapiens, UniProt P46098, Y68A).
T2 sequence (P46098 24-478 Y68A): T1 sequence (P46098 24-478) with Y45A
The test can be described thus: FlexStation membrane potential dye functional assay, HEK293 cells. The conditions noted are these: inhibition of 5-HT (EC50 concentration) response, 45 min preincubation, 5-HT3A Y73A. The class given is cell-based. Details: expressed in transfected cells; host or cells: HEK293.

The next test concerns the target T3, 5-HT3A receptor W183C (Homo sapiens, UniProt P46098, W178C).
T3 sequence (P46098 24-478 W178C): T1 sequence (P46098 24-478) with W155C
Briefly: radioligand saturation binding, transfected HEK293 membranes. The note with it: [3H]-palonosetron saturation, 5-HT3A W183C, 4 °C, 24 h, NB = no binding.

The next test concerns the target T4, 5-HT3A receptor Y73S (Homo sapiens, UniProt P46098, Y68S).
T4 sequence (P46098 24-478 Y68S): T1 sequence (P46098 24-478) with Y45S
The test is described as above. The note with it: [3H]-palonosetron saturation, 5-HT3A Y73S, 4 °C, 24 h.

Positions count from the first letter of the chain named.

Method for 5-HT3A receptor W183C: (§3) Human embryonic kidney (HEK) 293 cells were cultured on 90 mm tissue culture plates at 37 °C and 7% CO2 in a humidified atmosphere. They were grown in DMEM:F12 (Dulbecco’s Modified Eagle’s Medium/Nutrient Mix F12 (1:1)) with GlutaMAX I™ containing 10% fetal calf serum and passaged when confluent. For radioligand binding studies, cells in 90 mm dishes were transfected at 60–70% confluency using polyethyleneimine and incubated for 3–4 days before use. For FlexStation assays, transfected cells were plated on 96-well plates and incubated 1–2 days before assay. […]
(§4) Eight-point binding assays were performed to produce saturation binding curves. […] Radioactive counts were measured using a Beckman LS6000SC liquid scintillation counter (Fullerton, California, USA).
(§5) Data were analyzed by iterative curve fitting using GraphPad Prism v5 (San Diego, CA) according to the following equation: B=Bmax[L]^n/kdn+[L]^n where B is the amount of bound radioligand, Bmax is the maximum specific binding at equilibrium, [L] is the concentration of radioligand, Kd is the equilibrium dissociation constant of the radioligand, and n is the Hill coefficient.
Method for 5-HT3A receptor Y73A: For FlexStation assays, transfected cells were plated on 96-well plates and incubated 1–2 days before assay.
as §1, §2
Method for 5-HT3A receptor Y73S: as §3, §4, §5

Usually IC50 stands for the midpoint of a concentration-inhibition curve. Usually Kd stands for the equilibrium constant for the complex coming apart. As to `O=C1c2cccc3c2[C@H](CCC3)CN1[C@@H]1CN2CCC1CC2` [Palonosetron], the IC50 in test [1] worked out at 0.37 ± 0.1 nM; on 5-HT3A receptor Y73A, 13.1 ± 1.6 nM. Also, the Kd is greater than 2 nM on 5-HT3A receptor W183C; “no saturable, specific binding” at 5-HT3A receptor W183C (listed as [^3H]palonosetron); 0.61 ± 0.11 nM at 5-HT3A receptor Y73S.
